In brackets after ≈: the same amount, converted by molar mass.
Legend:
[1] = target: T1, 5-hydroxytryptamine receptor 1A (Homo sapiens) (UniProt P08908); experiment: Biased agonist activity at human recombinant 5-HT1A receptor stably expressed in CHO-K1 cells assessed as increase in calcium mobilization measured at 2 sec intervals for 180 secs by Fluo-4AM dye based fluorescence assay relative to serotonin; format: functional, cell-based; conditions: time 180.0 sec
T1 sequence (whole entry): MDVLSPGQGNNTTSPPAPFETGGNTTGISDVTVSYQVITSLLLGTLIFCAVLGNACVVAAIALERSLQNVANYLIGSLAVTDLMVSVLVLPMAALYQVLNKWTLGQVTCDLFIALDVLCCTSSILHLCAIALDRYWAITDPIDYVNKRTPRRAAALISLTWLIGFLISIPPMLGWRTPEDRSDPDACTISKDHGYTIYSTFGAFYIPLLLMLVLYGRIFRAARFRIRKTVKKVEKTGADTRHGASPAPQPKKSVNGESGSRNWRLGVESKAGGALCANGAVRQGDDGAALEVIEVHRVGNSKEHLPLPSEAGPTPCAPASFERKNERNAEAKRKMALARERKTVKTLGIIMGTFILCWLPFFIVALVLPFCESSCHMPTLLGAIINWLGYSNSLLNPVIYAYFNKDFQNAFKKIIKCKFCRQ

[2] = target: T1, 5-hydroxytryptamine receptor 1A (Homo sapiens); experiment: Biased agonist activity at Gal4-VP16 transcription factor linked human 5-HT1A receptor expressed in human U2OS cells assessed as stimulation of beta-arrestin recruitment measured after 5 hrs by Tango assay relative to serotonin; format: cell-based
[3] = target: T1, 5-hydroxytryptamine receptor 1A (Homo sapiens); experiment: Biased agonist activity at human recombinant 5-HT1A receptor stably expressed in CHO-K1 cells assessed as inhibition of forskolin-induced cAMP accumulation after 40 mins by LANCE Ultra cAMP kit-based TR-FRET assay relative to serotonin; format: functional, cell-based
[4] = target: T1, 5-hydroxytryptamine receptor 1A (Homo sapiens); experiment: Biased agonist activity at human recombinant 5-HT1A receptor stably expressed in CHO-K1 cells assessed as increase in ERK1/2 phosphorylation levels incubated for 15 mins by Alphalisa assay relative to serotonin; format: cell-based
[5] = target: T2, Adrenergic receptor alpha-1 (Rattus norvegicus, UniProt P15823+P23944+P43140); experiment: Displacement of [3H]-prazosin from alpha1 adrenergic receptor in rat cortex measured after 30 mins by microbeta2 scintillation counting method; format: tissue-based
T2 sequence (P15823 whole entry): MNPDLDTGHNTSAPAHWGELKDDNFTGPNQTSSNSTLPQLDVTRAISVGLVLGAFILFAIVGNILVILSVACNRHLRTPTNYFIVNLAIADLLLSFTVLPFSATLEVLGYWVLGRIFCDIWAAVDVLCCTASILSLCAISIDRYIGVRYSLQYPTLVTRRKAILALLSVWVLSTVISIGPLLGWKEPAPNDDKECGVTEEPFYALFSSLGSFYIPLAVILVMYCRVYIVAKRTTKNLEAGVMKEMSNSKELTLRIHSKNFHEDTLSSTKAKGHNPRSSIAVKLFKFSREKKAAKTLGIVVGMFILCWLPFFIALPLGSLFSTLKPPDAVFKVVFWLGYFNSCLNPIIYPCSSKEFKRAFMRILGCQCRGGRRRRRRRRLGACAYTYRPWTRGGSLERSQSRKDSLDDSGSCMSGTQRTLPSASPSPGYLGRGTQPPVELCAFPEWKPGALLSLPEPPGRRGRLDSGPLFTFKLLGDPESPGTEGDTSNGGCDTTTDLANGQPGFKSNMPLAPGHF
T2 sequence (P23944 whole entry): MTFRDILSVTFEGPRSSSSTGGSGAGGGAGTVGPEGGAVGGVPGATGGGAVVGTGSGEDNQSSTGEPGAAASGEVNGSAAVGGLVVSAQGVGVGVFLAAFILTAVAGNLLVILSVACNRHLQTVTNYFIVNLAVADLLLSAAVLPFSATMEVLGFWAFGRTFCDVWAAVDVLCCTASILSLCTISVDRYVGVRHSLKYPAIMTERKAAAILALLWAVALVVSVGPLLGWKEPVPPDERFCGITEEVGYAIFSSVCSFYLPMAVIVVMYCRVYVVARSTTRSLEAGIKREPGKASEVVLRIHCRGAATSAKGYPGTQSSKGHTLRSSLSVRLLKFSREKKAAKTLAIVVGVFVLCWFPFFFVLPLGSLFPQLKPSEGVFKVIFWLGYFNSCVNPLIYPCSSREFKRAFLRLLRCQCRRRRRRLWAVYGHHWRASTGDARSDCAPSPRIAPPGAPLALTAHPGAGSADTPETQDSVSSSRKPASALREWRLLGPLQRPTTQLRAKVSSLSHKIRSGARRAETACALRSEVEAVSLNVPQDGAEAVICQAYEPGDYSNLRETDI
T2 sequence (P43140 whole entry): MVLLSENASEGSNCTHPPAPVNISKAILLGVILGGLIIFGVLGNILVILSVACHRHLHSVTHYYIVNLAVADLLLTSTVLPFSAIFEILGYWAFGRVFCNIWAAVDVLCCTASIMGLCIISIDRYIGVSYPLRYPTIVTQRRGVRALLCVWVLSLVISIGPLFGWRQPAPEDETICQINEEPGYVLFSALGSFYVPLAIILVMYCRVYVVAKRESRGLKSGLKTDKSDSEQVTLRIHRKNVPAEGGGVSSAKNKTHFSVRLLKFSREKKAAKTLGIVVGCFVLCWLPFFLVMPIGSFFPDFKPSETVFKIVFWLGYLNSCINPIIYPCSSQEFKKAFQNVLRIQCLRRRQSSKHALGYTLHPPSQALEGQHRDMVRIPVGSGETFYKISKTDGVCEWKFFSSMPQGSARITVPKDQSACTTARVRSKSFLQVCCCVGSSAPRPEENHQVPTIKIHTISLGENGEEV

[6] = target: T3, 5-hydroxytryptamine receptor 1A (Homo sapiens, UniProt P08908); experiment: Displacement of [3H]8-OH-DPAT from recombinant human 5HT1A receptor stably expressed in CHO-K1 cell membranes measured after 60 mins by microbeta2 scintillation counting method; design: species or system Cell membrane
T3 sequence (P08908 whole entry): T1 sequence (whole entry)

D(2) dopamine receptor = D(2) dopamine receptor (Homo sapiens, UniProt P14416); experiment: Displacement of [3H]-methylspiperone from recombinant human D2 receptor stably expressed in CHO-K1 cell membranes measured after 60 mins by microbeta2 scintillation counting method; design: species or system Cell membrane
in vitro = conditions: human, liver microsomes
[7] = Permeability of compound across basolateral to apical side in human Caco-2 cells at pH 7.4; format: ADME, cell-based; conditions: Caco-2, pH 7.4, read-out: permeability
[8] = Aqueous solubility of compound in pH 7.4 PBS buffer at 200 uM; format: physicochemical
[9] = target: T1, 5-hydroxytryptamine receptor 1A (Homo sapiens); experiment: Bias factor, ratio of biased agonist activity at human recombinant 5-HT1A receptor stably expressed in CHO-K1 cells assessed as increase in ERK1/2 phosphorylation levels to biased agonist activity at human recombinant 5-HT1A receptor stably expressed in CHO-K1 cells assessed as inhibition of forskolin-induced cAMP accumulation; format: functional, cell-based
[10] = target: T1, 5-hydroxytryptamine receptor 1A (Homo sapiens); experiment: (§1) Bias factor, ratio of biased agonist activity at human recombinant 5-HT1A receptor stably expressed in CHO-K1 cells assessed as increase in ERK1/2 phosphorylation levels to biased agonist activity at Gal4-VP16 transcription factor linked human 5-HT1A receptor expressed in human U2OS cells assessed as stimulation of beta-arrestin recruitment; format: cell-based
[11] = target: T3, 5-hydroxytryptamine receptor 1A; experiment: Biased agonist activity at human recombinant 5-HT1A receptor stably expressed in CHO-K1 cells assessed as increase in ERK1/2 phosphorylation levels incubated for 15 mins by Alphalisa assay; format: cell-based
[12] = target: T1, 5-hydroxytryptamine receptor 1A (Homo sapiens); experiment: as §1, with “inhibition of forskolin-induced cAMP accumulation” for “increase in ERK1/2 phosphorylation levels”; format: functional, cell-based
[13] = target: T3, 5-hydroxytryptamine receptor 1A; experiment: Biased agonist activity at human recombinant 5-HT1A receptor stably expressed in CHO-K1 cells assessed as inhibition of forskolin-induced cAMP accumulation after 40 mins by LANCE Ultra cAMP kit-based TR-FRET assay; format: functional, cell-based

Chain of D(2) dopamine receptor (P14416 whole entry): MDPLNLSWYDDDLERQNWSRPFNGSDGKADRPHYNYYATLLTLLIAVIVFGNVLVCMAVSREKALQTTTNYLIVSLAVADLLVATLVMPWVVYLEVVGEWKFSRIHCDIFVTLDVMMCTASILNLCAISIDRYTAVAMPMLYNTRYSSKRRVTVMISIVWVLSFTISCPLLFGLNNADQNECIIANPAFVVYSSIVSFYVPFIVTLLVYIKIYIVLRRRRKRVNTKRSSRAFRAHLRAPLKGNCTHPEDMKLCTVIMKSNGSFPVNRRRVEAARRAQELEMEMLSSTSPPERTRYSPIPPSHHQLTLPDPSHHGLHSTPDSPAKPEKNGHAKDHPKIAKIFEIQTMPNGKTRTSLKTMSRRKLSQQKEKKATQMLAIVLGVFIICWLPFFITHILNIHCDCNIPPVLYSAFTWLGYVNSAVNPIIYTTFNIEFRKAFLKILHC

Work on `O=C(c1ccc(F)c(Cl)c1)N1CCC(F)(CNCCOc2cnccn2)CC1` yielded an Emax ([1]; filed as agonist) of 89%, an Emax ([2]; filed as agonist) of 97% and an Emax ([3]; filed as agonist) of 90%. The Emax ([4]; filed as agonist) was 100% and the pKi [5] was less than 6.
In the case of `O=C(c1ccc(F)c(Cl)c1)N1CCC(F)(CNCCCc2ccccc2)CC1`, the Emax ([1]; filed as partial agonist) is reported as 74%, the Emax ([2]; filed as agonist) is reported as 99% and the Emax ([3]; filed as agonist) is reported as 91%. The Emax ([4]; filed as agonist) was 77% and the pKi [5] was less than 6.
For `O=C(c1ccc(F)c(Cl)c1)N1CCC(F)(CNCCNc2ccccc2)CC1`, the Emax ([1]; filed as partial agonist) was 65%, the Emax ([2]; filed as agonist) was 104% and the Emax ([3]; filed as agonist) was 79%. It also gave an Emax ([4]; filed as agonist) of 81% and a pKi [5] of less than 6.
`O=C(c1ccc(F)c(Cl)c1)N1CCC(F)(CNCCSc2ccccn2)CC1` showed an Emax ([1]; filed as partial agonist) of 73%, an Emax ([2]; filed as agonist) of 102% and an Emax ([3]; filed as agonist) of 76%. For the same compound, the Emax ([4]; filed as agonist) was 84%.
For `O=C(c1ccc(F)c(Cl)c1)N1CCC(F)(CNCCOc2cncnc2)CC1`, the Ki [6] was 209 nM, the Ki (D(2) dopamine receptor) was greater than 1000 nM and the pKi [5] was less than 6.
`Cc1cnc(OCCNCC2(F)CCN(C(=O)c3ccc(F)c(Cl)c3)CC2)nc1` showed an Emax ([2]; filed as partial agonist) of 75%, an Emax ([3]; filed as partial agonist) of 41% and an Emax ([4]; filed as partial agonist) of 72%. It also gave a pKi [5] of less than 6.
In the case of `CC(C)NCC(O)COc1cccc2ccccc12` (centres undefined) [PROPRANOLOL], the half-life at 0.1 µM (in vitro) is reported as greater than 1 h and the Papp B→A [7] is reported as 27.4 ×10⁻⁶ cm/s.
`O=C(c1ccc(F)c(Cl)c1)N1CCC(F)(CNCCOc2cccnc2)CC1` gave an Emax ([1]; filed as agonist) of 98%, an Emax ([2]; filed as agonist) of 101% and an Emax ([3]; filed as agonist) of 100%. For the same compound, the Emax ([4]; filed as agonist) was 99% and the pKi [5] was less than 6.
For `COCCc1ccc(OCC(O)CNC(C)C)cc1` (centres undefined) [METOPROLOL], the solubility at 200 µM [8] was 181 µM (≈ 48.3 µg/mL).
Compound `O=C(c1ccc(F)c(Cl)c1)N1CCC(F)(CNCCSc2ccccc2)CC1` has an Emax ([2]; filed as partial agonist) of 70%, a Ratio [9] of 1.27 and an Emax ([3]; filed as partial agonist) of 71%. For the same compound, the Emax ([4]; filed as partial agonist) was 85%, the Ratio [10] was 0.82 and the EC50 [11] was 170 nM. For the same compound, the Ratio [12] was -0.45, the Ki [6] was 0.562 nM and the EC50 [13] was 2450 nM. It also gave a Ki (D(2) dopamine receptor) greater than 1000 nM.
